Assay results as given in patent US9573913B2, “Cathepsin cysteine protease inhibitors” (Merck Sharp & Dohme Corp., priority 2013, dated 2017).

Columns and labels:
human cathepsin K = human cathepsin K (UniProt P43236); assay: Cathepsin K Assay (hrbCat K); type: biochemical; settings: Z-Leu-Arg-AMC substrate, pH 5.5, 15 min preincubation; read-out: hrbCat K (IP (nM))
Procedure, shortened: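 Human cathepsin K (0.4 nM) was preincubated 15 min at room temperature with compound in 50 mM MES pH 5.5, 2.5 mM EDTA, 2.5 mM DTT and 10% DMSO. Inhibition was fitted to a dose-response model.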

human cathepsin F = target: T1, human cathepsin F (Homo sapiens, UniProt Q9UBX1); assay: Cathepsin F assay (hCat F); type: biochemical; settings: Z-Phe-Arg-AMC substrate, pH 5.5, 15 min preincubation; read-out: hCat F (IP (nM))
T1 sequence (Q9UBX1 271-484): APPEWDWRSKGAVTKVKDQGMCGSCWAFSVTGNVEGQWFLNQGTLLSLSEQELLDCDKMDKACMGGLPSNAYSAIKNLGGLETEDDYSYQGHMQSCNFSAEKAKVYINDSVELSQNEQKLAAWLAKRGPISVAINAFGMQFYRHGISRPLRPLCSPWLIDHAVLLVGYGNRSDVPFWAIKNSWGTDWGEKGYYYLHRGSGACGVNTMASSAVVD
Procedure, shortened: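 AMC release from Z-Phe-Arg-AMC, added at 8 μM, was monitored fluorometrically (360/460 nm) for 20 min after 10 nM enzyme and compound had been preincubated 15 min at room temperature. Buffer: MES 50 mM pH 5.5, EDTA and DTT 2.5 mM each, 10% DMSO. Compound DMSO dilutions spanned 500–0.025 μM (3-fold). Dose-response fitting gave % inhibition.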

SMILES | IC50 (human cathepsin K) | IC50 (human cathepsin F)
N#CC1(NC(=O)[C@@H]2C[C@H](F)CC[C@H]2c2nc(-c3ccc(F)cc3)sc2-c2ccc(N3CCS(=O)(=O)CC3)cc2)CC1 [Example 45, (1R,2R,5R)-N-(1-cyanocyclopropyl)-2-(5-(4-(1,1-dioxidothiomorpho-lino)phenyl)-2-(4-fluorophenyl)thiazol-4-yl)-5-fluorocyclohexane-carboxamide] | 1.5 nM | 197 nM
N#CC1(NC(=O)[C@@H]2C[C@@H](F)CC[C@H]2c2nc(-c3cccnc3)sc2-c2ccc(N3CCS(=O)(=O)CC3)cc2)CC1 [Example 46, (1R,2R,5S)-N-(1-cyanocyclopropyl)-2-(5-(4-(1,1-dioxidothiomorpho-lino)phenyl)-2-(pyridin-3-yl)thiazol-4-yl)-5-fluorocyclohexane-carboxamide] | 1.1 nM | 1980 nM
N#CC1(NC(=O)[C@@H]2CCCC[C@H]2c2nc(-c3ccc(F)cn3)sc2-c2ccc(N3CCS(=O)(=O)CC3)cc2)CC1 [Example 47, (1R,2R)-N-(1-cyanocyclopropyl)-2-(5-(4-(1,1-dioxidothiomorpho-lino)phenyl)-2-(5-fluoropyridin-2-yl)thiazol-4-yl)cyclohexane-carboxamide] | 1.3 nM | 1520 nM
N#CC1(NC(=O)[C@@H]2CCCC[C@H]2c2nc(-c3cncc(Cl)c3)sc2-c2ccc(N3CCS(=O)(=O)CC3)cc2)CC1 [Example 48, (1R,2R)-2-(2-(5-chloropyridin-3-yl)-5-(4-(1,1-dioxidothiomorpho-lino)phenyl)thiazol-4-yl)-N-(1-cyanocyclopropyl) cyclohexanecarbox-amide] | 0.8 nM | 650 nM
N#CC1(NC(=O)[C@@H]2CC(F)(F)CC[C@H]2c2nc(-c3cccnc3)sc2-c2ccc(N3CCS(=O)(=O)CC3)cc2)CC1 [Example 49, (1R,2R)-N-(1-cyanocyclopropyl)-2-(5-(4-(1,1-dioxidothiomorpho-lino)phenyl)-2-(pyridin-3-yl)thiazol-4-yl)-5,5-difluorocyclohexane-carboxamide] | 0.5 nM | 49 nM
Cn1cccc(-c2nc([C@@H]3CCCC[C@H]3C(=O)NC3(C#N)CC3)c(-c3ccc(N4CCS(=O)(=O)CC4)cc3)s2)c1=O [Example 50, (1R,2R)-N-(1-cyanocyclopropyl)-2-(5-(4-(1,1-dioxidothiomorpho-lino)phenyl)-2-(1-methyl-2-oxo-1,2-dihydropyridin-3-yl)thiazol-4-yl)cyclohexane-carboxamide] | 1.9 nM | 879 nM
COc1ccc(-c2nc([C@@H]3CCCC[C@H]3C(=O)NC3(C#N)CC3)c(-c3ccc(N4CCS(=O)(=O)CC4)cc3)s2)cc1 [Example 51, (1R,2R)-N-(1-cyanocyclopropyl)-2-(5-(4-(1,1-dioxidothiomorpho-lino)phenyl)-2-(4-methoxyphenyl)thi-azol-4-yl)cyclohexane-carboxamide] | 1.8 nM | 1110 nM
Cn1cc(-c2nc([C@@H]3CCCC[C@H]3C(=O)NC3(C#N)CC3)c(-c3ccc(N4CCS(=O)(=O)CC4)cc3)s2)ccc1=O [Example 53, (1R,2R)-N-(1-cyanocyclopropyl)-2-(5-(4-(1,1-dioxidothiomorpho-lino)phenyl)-2-(1-methyl-6-oxo-1,6-dihydropyridin-3-yl)thiazol-4-yl)cyclohexane-carboxamide] | 3.8 nM | 2770 nM
COc1ccccc1-c1nc([C@@H]2CCCC[C@H]2C(=O)NC2(C#N)CC2)c(-c2ccc(N3CCS(=O)(=O)CC3)cc2)s1 [Example 54, (1R,2R)-N-(1-cyanocyclopropyl)-2-(5-(4-(1,1-dioxidothiomorpho-lino)phenyl)-2-(2-methoxyphenyl)thi-azol-4-yl)cyclohexane-carboxamide] | 2.1 nM | 1000 nM
N#CC1(NC(=O)[C@@H]2CCCC[C@H]2c2nc(-c3ccccc3F)sc2-c2ccc(N3CCS(=O)(=O)CC3)cc2)CC1 [Example 55, (1R,2R)-N-(1-cyanocyclopropyl)-2-(5-(4-(1,1-dioxidothiomorpho-lino)phenyl)-2-(2-fluorophenyl)thiazol-4-yl)cyclohexane-carboxamide] | 2.5 nM | 1120 nM
COc1cccc(-c2nc([C@@H]3CCCC[C@H]3C(=O)NC3(C#N)CC3)c(-c3ccc(N4CCS(=O)(=O)CC4)cc3)s2)c1 [Example 56, (1R,2R)-N-(1-cyanocyclopropyl)-2-(5-(4-(1,1-dioxidothiomorpho-lino)phenyl)-2-(3-methoxyphenyl)thi-azol-4-yl)cyclohexane-carboxamide] | 1.8 nM | 821 nM
N#CC1(NC(=O)[C@@H]2CCCC[C@H]2c2nc(-c3cc(F)cc(F)c3)sc2-c2ccc(N3CCS(=O)(=O)CC3)cc2)CC1 [Example 57, (1R,2R)-N-(1-cyanocyclopropyl)-2-(2-(3,5-difluorophenyl)-5-(4-(1,1-dioxidothiomorpho-lino)phenyl)thiazol-4-yl)cyclohexane-carboxamide] | 1.5 nM | 650 nM
N#CC1(NC(=O)[C@@H]2CCCC[C@H]2c2nc(-c3ccc(F)c(F)c3)sc2-c2ccc(N3CCS(=O)(=O)CC3)cc2)CC1 [Example 58, (1R,2R)-N-(1-cyanocyclopropyl)-2-(2-(3,4-difluorophenyl)-5-(4-(1,1-dioxidothiomorpho-lino)phenyl)thiazol-4-yl)cyclohexane-carboxamide] | 1.7 nM | 815 nM
COc1cnc(-c2nc([C@@H]3CCCC[C@H]3C(=O)NC3(C#N)CC3)c(-c3ccc(N4CCS(=O)(=O)CC4)cc3)s2)c(OC)c1 [Example 59, (1R,2R)-N-(1-cyanocyclopropyl)-2-(2-(3,5-dimethoxypyridin-2-yl)-5-(4-(1,1-dioxidothiomorpho-lino)phenyl)thiazol-4-yl)cyclohexane-carboxamide] | 45.1 nM | ≥ 10000 nM
COc1cnc(-c2nc([C@@H]3CCCC[C@H]3C(=O)NC3(C#N)CC3)c(-c3ccc(N4CCS(=O)(=O)CC4)cc3)s2)c(F)c1 [Example 60, (1R,2R)-N-(1-cyanocyclopropyl)-2-(5-(4-(1,1-dioxidothiomorpho-lino)phenyl)-2-(3-fluoro-5-methoxypyridin-2-yl)thiazol-4-yl)cyclohexane-carboxamide] | 5.1 nM | 7910 nM
N#Cc1cc(F)ccc1-c1nc([C@@H]2CCCC[C@H]2C(=O)NC2(C#N)CC2)c(-c2ccc(N3CCS(=O)(=O)CC3)cc2)s1 [Example 61, (1R,2R)-2-(2-(2-cyano-4-fluorophenyl)-5-(4-(1,1-dioxidothiomorpho-lino)phenyl)thiazol-4-yl)-N-(1-cyanocyclopropyl) cyclohexanecarbox-amide] | 5.9 nM | 7650 nM
N#CC1(NC(=O)[C@@H]2CCCC[C@H]2c2nc(-c3cccc(F)c3F)sc2-c2ccc(N3CCS(=O)(=O)CC3)cc2)CC1 [Example 62, (1R,2R)-N-(1-cyanocyclopropyl)-2-(2-(2,3-difluorophenyl)-5-(4-(1,1-dioxidothiomorpho-lino)phenyl)thiazol-4-yl)cyclohexane-carboxamide] | 2.1 nM | 1000 nM
N#CC1(NC(=O)[C@@H]2CCCC[C@H]2c2nc(-c3cccc(F)c3)sc2-c2ccc(N3CCS(=O)(=O)CC3)cc2)CC1 [Example 64, (1R,2R)-N-(1-cyanocyclopropyl)-2-(5-(4-(1,1-dioxidothiomorpho-lino)phenyl)-2-(3-fluorophenyl)thiazol-4-yl)cyclohexane-carboxamide] | 1.4 nM | 1330 nM
